Experiments:
HCV replicon genotype 1a = assay: HCV replicon assay, genotype 1a (cell ELISA for NS3/4A); assay type: cell-based; settings: Hepatitis C virus, 96 h, read-out: 1a IC50 (nM)
Protocol: (§1) Measurement of inhibition by compounds was performed using the HCV replicon system. Several different replicons encoding different HCV genotypes or mutations were used. In addition, potency measurements were made using different formats of the replicon assay, including different ways of measurements and different plating formats. See Jan M. Vrolijk et al., A replicons-based bioassay for the measurement of interferons in patients with chronic hepatitis C, 110 J. Virological Methods 201 (2003); Steven S. Carroll et al., Inhibition of Hepatitis C Virus RNA Replication by 2′-Modified Nucleoside Analogs, 278(14) J. Biological Chemistry 11979 (2003). However, the underlying principles are common to all of these determinations, and are outlined below.
(§2) Stable neomycin phosphotransferase encoding replicons-harboring cell lines were used, so all cell lines were maintained under G418 selection prior to the assay. Potency was determined using a cell ELISA assay with an antibody to the replicons encoded NS3/4a protease. See Caterina Trozzi et al., In Vitro Selection and Characterization of Hepatitis C Virus Serine Protease Variants Resistant to an Active-Site Peptide Inhibitor, 77(6) J. Virol. 3669 (2003). To initiate an assay, replicon cells were plated in the presence of a dilution series of test compound in the absence of G418. Typically, the assays were performed in a 96-well plate formate for manual operation, or a 384-well plate format for automated assay. Replicon cells and compound were incubated for 96 hours. At the end of the assay, cells were washed free of media and compound, and the cells were then lysed. RNA was quantified indirectly through detection of replicon-encoded NS3/4A protein levels, through an ELISA-based assay with an antibody specific for NS3/4A. IC50 determinations were calculated as a percentage of a DMSO control by fitting the data to a four-parameter fit function and the data obtained is provided in the table below.
(§3) Data for selected compounds of the present invention was obtained for genotypes 1a and 1b using this method and is provided in the table below: […]

HCV replicon genotype 1b = assay: HCV replicon assay, genotype 1b (cell ELISA for NS3/4A); assay type: cell-based; settings: Hepatitis C virus, 96 h, read-out: 1b IC50 (nM)
Protocol: as §1, §2, §3

SMILES	IC50 (HCV replicon genotype 1a) [nM]	IC50 (HCV replicon genotype 1b) [nM]
CNC(=O)c1c(-c2ccc(F)cc2)oc2cc(N(C)S(C)(=O)=O)c(-c3cc(-c4cc5c(F)cccc5[nH]4)c(=O)n(C)c3)cc12 [Compound 1, 5-(5-(4-fluoro-1H-indol-2-yl)-1-methyl-6-oxo-1,6-dihydropyridin-3-yl)-2-(4-fluorophenyl)-N-methyl-6-(N-methylmethylsulfonamido)benzofuran-3-carboxamide]	3.62	3.88
CNC(=O)c1c(-c2ccc(F)cc2)oc2cc(N(C)S(C)(=O)=O)c(-c3cc(-c4cc5c(C#N)cccc5[nH]4)c(=O)n(C)c3)cc12 [Compound 2, 5-(5-(4-cyano-1H-indol-2-yl)-1-methyl-6-oxo-1,6-dihydropyridin-3-yl)-2-(4-fluorophenyl)-N-methyl-6-(N-methylmethylsulfonamido)-benzofuran-3-carboxamide]	2.47	2.43
CNC(=O)c1c(-c2ccc(F)cc2)oc2cc(N(C)S(C)(=O)=O)c(-c3cc(-c4cc5c(F)cccc5[nH]4)c(=O)n(C(F)F)c3)cc12 [Compound 3, 5-(1-(difluoromethyl)-5-(4-fluoro-1H-indol-2-yl)-6-oxo-1,6-dihydropyridin-3-yl)-2-(4-fluorophenyl)-N-methyl-6-(N-methylmethyl-sulfonamido)benzofuran-3-carboxamide]	2.98	5.37
CNC(=O)c1c(-c2ccc(F)cc2)oc2cc(N(C)S(C)(=O)=O)c(-c3cc(-c4cnn(-c5ccc(F)cc5)c4)c(=O)n(C)c3)cc12 [Compound 4, 2-(4-fluorophenyl)-5-(5-(1-(4-fluorophenyl)-1H-pyrazol-4-yl)-1-methyl-6-oxo-1,6-dihydropyridin-3-yl)-N-methyl-6-(N-methyl-methylsulfonamido)benzo-furan-3-carboxamide]	5.71	6.81
CNC(=O)c1c(-c2ccc(F)cc2)oc2cc(N(C)S(C)(=O)=O)c(-c3cc(-c4nc5ccccc5o4)c(=O)n(C)c3)cc12 [Compound 5, 5-(5-(benzo[d]oxazol-2-yl)-1-methyl-6-oxo-1,6-dihydropyridin-3-yl)-2-(4-fluorophenyl)-N-methyl-6-(N-methylmethylsulfonamido)benzofuran-3-carboxamide]	5.82	3.71
CNC(=O)c1c(-c2ccc(F)cc2)oc2cc(N(C)S(C)(=O)=O)c(-c3cc(N4Cc5c(F)cccc5C4=O)c(=O)n(C)c3)cc12 [Compound 6, 5-(5-(4-fluoro-1-oxoisoindolin-2-yl)-1-methyl-6-oxo-1,6-dihydropyridin-3-yl)-2-(4-fluorophenyl)-N-methyl-6-(N-methylmethylsulfonamido)benzofuran-3-carboxamide]	16.5	8.38
CNC(=O)c1c(-c2ccc(F)cc2)oc2cc(N(C)S(C)(=O)=O)c(-c3cc(-c4cc5c(F)cccc5n4C)c(=O)n(C)c3)cc12 [Compound 7, 5-(5-(4-fluoro-1-methyl-1H-indol-2-yl)-1-methyl-6-oxo-1,6-dihydropyridin-3-yl)-2-(4-fluorophenyl)-N-methyl-6-(N-methylmethylsulfonamido)benzofuran-3-carboxamide]	1.55	1.1
CNC(=O)c1c(-c2ccc(F)cc2)oc2cc(N(C)S(C)(=O)=O)c(-c3cc(-c4cc5c(F)cccc5n4C)c(=O)n(C(F)F)c3)cc12 [Compound 8, 5-(1-(difluoromethyl)-5-(4-fluoro-1-methyl-1H-indol-2-yl)-6-oxo-1,6-dihydropyridin-3-yl)-2-(4-fluorophenyl)-N-methyl-6-(N-methyl-methylsulfonamido)benzo-furan-3-carboxamide]	6.45	5.95
CNC(=O)c1c(-c2ccc(F)cc2)oc2cc(N(C)S(C)(=O)=O)c(-c3cc(-c4cc5ncccc5o4)c(=O)n(C)c3)cc12 [Compound 9, 2-(4-fluorophenyl)-5-(5-(furo[3,2-b]pyridin-2-yl)-1-methyl-6-oxo-1,6-dihydropyridin-3-yl)-N-methyl-6-(N-methylmethylsulfonamido)benzofuran-3-carboxamide]	13.4	4.16
CNC(=O)c1c(-c2ccc(F)cc2)oc2cc(N(C)S(C)(=O)=O)c(-c3cc(-c4nc5ncccc5o4)c(=O)n(C)c3)cc12 [Compound 10, 2-(4-fluorophenyl)-N-methyl-5-(1-methyl-5-(oxazolo[4,5-b]pyridin-2-yl)-6-oxo-1,6-dihydropyridin-3-yl)-6-(N-methylmethylsulfonamido) benzofuran-3-carboxamide]	22.7	10.1
CNC(=O)c1c(-c2ccc(F)cc2)oc2cc(N(C)S(C)(=O)=O)c(-c3cc(-c4cc5c(F)cccc5[nH]4)cn(C)c3=O)cc12 [Compound 11, 5-(5-(4-fluoro-1H-indol-2-yl)-1-methyl-2-oxo-1,2-dihydropyridin-3-yl)-2-(4-fluorophenyl)-N-methyl-6-(N-methylmethylsulfonamido)benzofuran-3-carboxamide]	3.84	2.67
CNC(=O)c1c(-c2ccc(F)cc2)oc2cc(N(C)S(C)(=O)=O)c(-c3cc(-c4cc5c(C#N)cccc5[nH]4)cn(C)c3=O)cc12 [Compound 12, 5-(5-(4-cyano-1H-indol-2-yl)-1-methyl-2-oxo-1,2-dihydropyridin-3-yl)-2-(4-fluorophenyl)-N-methyl-6-(N-methylmethylsulfonamido) benzofuran-3-carboxamide]	3.28	1.67
CNC(=O)c1c(-c2ccc(F)cc2)oc2cc(N(C)S(C)(=O)=O)c(-c3cc(-c4cc5c(F)cccc5[nH]4)c(=O)n(C)n3)cc12 [Compound 13, 5-(5-(4-fluoro-1H-indol-2-yl)-1-methyl-6-oxo-1,6-dihydropyridazin-3-yl)-2-(4-fluorophenyl)-N-methyl-6-(N-methylmethylsulfonamido)benzofuran-3-carboxamide]	4.52	6.59
CNC(=O)c1c(-c2ccc(F)cc2)oc2cc(N(C)S(C)(=O)=O)c(-c3cc(-c4cc5c(C#N)cccc5[nH]4)c(=O)n(C)n3)cc12 [Compound 14, 5-(5-(4-cyano-1H-indol-2-yl)-1-methyl-6-oxo-1,6-dihydropyridazin-3-yl)-2-(4-fluorophenyl)-N-methyl-6-(N-methylmethylsulfonamido) benzofuran-3-carboxamide]	3.55	4.43
CNC(=O)c1c(-c2ccc(F)cc2)oc2cc(N(C)S(C)(=O)=O)c(-c3cc(-c4cc5ncccc5[nH]4)c(=O)n(C)n3)cc12 [Compound 15, 2-(4-fluorophenyl)-N-methyl-5-(1-methyl-6-oxo-5-(1H-pyrrolo[3,2-b]pyridin-2-yl)-1,6-dihydropyridazin-3-yl)-6-(N-methylmethylsulfonamido) benzofuran-3-carboxamide]	238	81.1
CNC(=O)c1c(-c2ccc(F)cc2)oc2cc(N(C)S(C)(=O)=O)c(-c3cc(-c4cc5c(F)cccc5n4C)c(=O)n(C)n3)cc12 [Compound 16, 5-(5-(4-fluoro-1-methyl-1H-indol-2-yl)-1-methyl-6-oxo-1,6-dihydropyridazin-3-yl)-2-(4-fluorophenyl)-N-methyl-6-(N-methylmethylsulfonamido)benzofuran-3-carboxamide]	1.38	1.38
CNC(=O)c1c(-c2ccc(F)cc2)oc2cc(N(C)S(C)(=O)=O)c(-c3cc(-c4cc5c(C#N)cccc5n4C)c(=O)n(C)n3)cc12 [Compound 17, 5-(5-(4-cyano-1-methyl-1H-indol-2-yl)-1-methyl-6-oxo-1,6-dihydropyridazin-3-yl)-2-(4-fluorophenyl)-N-methyl-6-(N-methylmethylsulfonamido) benzofuran-3-carboxamide]	2.29	4.26
CNC(=O)c1c(-c2ccc(F)cc2)oc2cc(N(C)S(C)(=O)=O)c(-c3cc(-c4cc5c(C#N)cccc5n4CCOC)c(=O)n(C)n3)cc12 [Compound 18, 5-(5-(4-cyano-1-(2-methoxyethyl)-1H-indol-2-yl)-1-methyl-6-oxo-1,6-dihydropyridazin-3-yl)-2-(4-fluorophenyl)-N-methyl-6-(N-methylmethylsulfonamido)benzofuran-3-carboxamide]	3.15	5.02
CNC(=O)c1c(-c2ccc(F)cc2)oc2cc(N(C)S(C)(=O)=O)c(-c3cc(-c4cc5c(F)cccc5[nH]4)nn(C)c3=O)cc12 [Compound 19, 5-(6-(4-fluoro-1H-indol-2-yl)-2-methyl-3-oxo-2,3-dihydropyridazin-4-yl)-2-(4-fluorophenyl)-N-methyl-6-(N-methylmethylsulfonamido)benzofuran-3-carboxamide]	2.48	3.07
CNC(=O)c1c(-c2ccc(F)cc2)oc2cc(N(C)S(C)(=O)=O)c(-c3cn(C)c(=O)c(-c4cc5c(F)cccc5[nH]4)n3)cc12 [Compound 20, 5-(6-(4-fluoro-1H-indol-2-yl)-4-methyl-5-oxo-4,5-dihydropyrazin-2-yl)-2-(4-fluorophenyl)-N-methyl-6-(N-methylmethylsulfonamido)benzofuran-3-carboxamide]	2.9	5.91

From patent publication US20160130259A1, “SUBSTITUTED BENZOFURAN COMPOUNDS AND METHODS OF USE THEREOF FOR THE TREATMENT OF VIRAL DISEASES” (priority 2013, published 2016)
